Reference: PubChem BioAssay AID1259407 (Chemical Carcinogenesis Research Information System (CCRIS), 2018)
Calls of active or inactive are those of the source. How the calls were made is not given here.

System: CCRIS mutagenicity, Ames/micronucleus/aberration tests
Assay: CCRIS mutagenicity studies

**Q.** Which mutagenic call (Test System: AMES SALMONELLA TYPHIMURIUM, Strain/Indicator: HISG46, Metabolic Activation: NONE, Method: STANDARD PLATE) does the source give for `Nc1nc(NO)c2[nH]cnc2n1` here?
**A.** active; positive

**Q.** What about the mutagenic call (Test System: AMES SALMONELLA TYPHIMURIUM, Strain/Indicator: TA98, Metabolic Activation: NONE, Method: STANDARD PLATE) of the same molecule?
**A.** inactive; negative

**Q.** What about the mutagenic call (Test System: AMES SALMONELLA TYPHIMURIUM, Strain/Indicator: TA100(1,8-DNP6), Metabolic Activation: NONE, Method: PREINCUBATION) of the same molecule?
**A.** active; positive

**Q.** And the mutagenic call (Test System: AMES SALMONELLA TYPHIMURIUM, Strain/Indicator: TA100(NR), Metabolic Activation: NONE, Method: PREINCUBATION)?
**A.** active; positive

**Q.** What about the mutagenic call (Test System: AMES SALMONELLA TYPHIMURIUM, Strain/Indicator: TA100, Metabolic Activation: NONE, Method: PREINCUBATION) of the same molecule?
**A.** active; positive

**Q.** What about the mutagenic call (Test System: AMES SALMONELLA TYPHIMURIUM, Strain/Indicator: TA100, Metabolic Activation: NONE, Method: STANDARD PLATE) of the same molecule?
**A.** active; positive

**Q.** And the mutagenic call (Test System: AMES SALMONELLA TYPHIMURIUM, Strain/Indicator: TA100, Metabolic Activation: RAT, LIVER, S-9, KANECHLOR 500, Method: PREINCUBATION)?
**A.** active; positive

**Q.** What about the mutagenic call (Test System: AMES SALMONELLA TYPHIMURIUM, Strain/Indicator: TA1950, Metabolic Activation: NONE, Method: STANDARD PLATE) of the same molecule?
**A.** active; positive

**Q.** And the mutagenic call (Test System: CHINESE HAMSTER OVARY, Strain/Indicator: CHO-K1-BH4 (HGPRT), Metabolic Activation: NONE, Method: SUSPENSION)?
**A.** active; positive

**Q.** What about the mutagenic call (Test System: E. COLI, Strain/Indicator: CM871, Metabolic Activation: NONE, Method: STANDARD PLATE) of the same molecule?
**A.** active; positive

**Q.** And the mutagenic call (Test System: E. COLI, Strain/Indicator: WP2, Metabolic Activation: NONE, Method: STANDARD PLATE)?
**A.** active; positive

**Q.** And the mutagenic call (Test System: E. COLI, Strain/Indicator: WP2S, Metabolic Activation: NONE, Method: STANDARD PLATE)?
**A.** active; positive

**Q.** And the mutagenic call (Test System: E. COLI, Strain/Indicator: WP2 UVRA, Metabolic Activation: NONE, Method: STANDARD PLATE)?
**A.** active; positive

**Q.** And the mutagenic call (Test System: MOUSE LYMPHOMA, Strain/Indicator: L5178Y (TK+/TK-)/6-THIOGUANINE, Metabolic Activation: NONE, Method: SUSPENSION)?
**A.** active; positive

**Q.** And the mutagenic call (Test System: MOUSE LYMPHOMA, Strain/Indicator: L5178Y (TK+/TK-)/6-THIOGUANINE, Metabolic Activation: NONE, Method: SUSPENSION IN TRAYS)?
**A.** active; positive

**Q.** And the mutagenic call (Test System: MOUSE LYMPHOMA, Strain/Indicator: L5178Y (TK+/TK-)/OUABAIN, Metabolic Activation: NONE, Method: SUSPENSION)?
**A.** active; positive

**Q.** What about the mutagenic call (Test System: MOUSE LYMPHOMA, Strain/Indicator: L5178Y (TK+/TK-)/OUABAIN, Metabolic Activation: NONE, Method: SUSPENSION IN TRAYS) of the same molecule?
**A.** active; positive

**Q.** And the mutagenic call (Test System: MOUSE LYMPHOMA, Strain/Indicator: L5178Y (TK+/TK-)/TRIFLUOROTHYMIDINE, Metabolic Activation: NONE, Method: SUSPENSION)?
**A.** active; positive

**Q.** What about the mutagenic call (Test System: MOUSE LYMPHOMA, Strain/Indicator: L5178Y (TK+/TK-)/TRIFLUOROTHYMIDINE, Metabolic Activation: NONE, Method: SUSPENSION IN TRAYS) of the same molecule?
**A.** active; positive

**Q.** What about the mutagenic call (Test System: MOUSE LYMPHOMA, Strain/Indicator: L5178Y (TK+/TK-), Metabolic Activation: NONE, Method: SUSPENSION/PLATE) of the same molecule?
**A.** active; positive
